The text below walks through data of patent US9279769B2, “Proteins that efficiently generate singlet oxygen” (The Regents of the University of California, priority 2010, dated 2016).

The target in one data set is flavodoxin. The conditions noted are these: literature value for a flavodoxin [23]; read-out: dissociation constant; cited from earlier work.
Data set [1] has as its target T1, Arabidopsis thaliana phototropin 2 (AtPhot2) LOV2 domain (residues 387-492) variant AtminiSOG0.2 (miniSOG0.2, miniSOG), 1387M/N390S/S394T/S409G/C426G/F470L, SEQ ID NO: 2 (Arabidopsis thaliana, UniProt P93025, C426G/F470L/N390S/S394T/S409G).
T1 construct: can be engineered into a small (106-residue) SOG; made in house
The experiment in a line: Equilibrium dialysis of miniSOG (FMN dissociation constant). The class given is binding. The text has this: Mass spectrometry confirmed that the flavin cofactor is FMN. Equilibrium dialysis reported a dissociation constant of 170±8 pM (Table 2), similar to values for some flavoproteins (e.g., 260±60 pM for a flavodoxin [23]) and consistent with the crystal structures of LOV domains, which show FMN deeply buried inside the protein core.
(In equilibrium dialysis free small molecules cross a membrane that holds back macromolecules.)

The conditions of data set [2]: literature value; cited from earlier work.
Data set [3] relates to HEK293 cells. The experiment in a line: growth rate of HEK293 cells overexpressing the protein, no light. The class given is cell-based. The conditions noted are these: for Cell number: HEK293 cells; for toxicity in the absence of light: overexpression in cells, no illumination. The source says:
(§1) Feedback pathways involving enzymes such as riboflavin kinase (EC 2.7.1.26) and FAD (flavin adenine dinucleotide) diphosphatase (EC 3.6.1.18) probably regulate intracellular FMN to titrate endogenous flavoproteins and miniSOG [25]. Riboflavin kinase phosphorylates riboflavin into FMN, while FAD diphosphatase catalyzes the production of FMN from FAD.
DNA encoding miniSOG with codons optimized for mammals was synthesized by overlap extension PCR [48]. MiniSOG fusions were cloned into pcDNA3.1 vector. HEK293 and HeLa cells were transfected with miniSOG or chimera cDNAs using Fugene, then imaged 24-48 h later. Cultured cortical neurons were transfected by Amaxa electroporation (Lonza AG, Germany) and imaged 1-2 wk later.

Data set [4] is described as follows: fluorescence quantum yield. It is filed as physicochemical. Here is the method: (§2) FIG. 3. (A) Absorbance spectrum of miniSOG0.2 determined between 400 nm and 500 nm (B) Normalized absorbance (left) and emission (right) spectra of miniSOG0.2. The fluorescence quantum yield of miniSOG0.2 was determined to be 0.30. (C) ADPA degradation by miniSOG0.2. ADPA was mixed with miniSOG0.2 in PBS and illuminated at 480/30 nm. ADPA emission spectra taken after indicated illumination times. (D) Degradation of ADPA by illumination of miniSOG0.2 (▴) or free FMN (♦). Flavin mononucleotide (FMN) was used as the standard for the quantum yield measurement. The data represents one typical measurement. The averaged absorbance intensity of FMN and miniSOG0.2 in this measurement is 0.064 and 0.070 respectively in arbitrary units. Singlet-oxygen-generation quantum yield of miniSOG0.2 was determined to be 0.47±0.05 (from three independent measurements).
(§3) […] was synthesized by overlap extension PCR [48]. Genetic libraries were constructed by saturation and random mutagenesis and DNA shuffling. Mutants were fused to IFP1.4 by overlap extension PCR and cloned into a modified pBAD vector containing the heme oxygenase-1 gene from cyanobacteria. Libraries were expressed in E. coli strain TOP10 and screened by imaging the agar plates with colonies in the IFP channel before and after blue light illumination. Protein purification and spectroscopic characterization experiments were done as described.

Data set [5] is described as follows: 1O2 quantum yield measured with ADPA as 1O2 sensor, FMN as standard. The class given is physicochemical. As to conditions: for 1O2 (singlet oxygen generation) quantum yield: ADPA sensor in PBS, illuminated at 480/30 nm, FMN standard. Here is the method:
as §2
(§4) To increase the brightness of the C426G mutant, we also performed saturation mutagenesis of other residues surrounding the chromophore binding site. […] The ^1O2 quantum yield of miniSOG0.2 (0.47±0.05) was measured using anthracene-9,10-dipropionic acid (ADPA) as a ^1O2 sensor (FIG. 1E). Free FMN was used as the standard for the measurement of ^1O2 generation (quantum yield 0.51).

Data set [6] is described as follows: absorbance spectrum, extinction coefficients. The class given is physicochemical. The protocol:
as §4, §3

In data set [7] the test system is HEK293 cells. The data set is described as follows: FMN content of HEK293 cells after overexpression. As to conditions: overexpression in HEK293 cells. The class given is cell-based.
Text: as §1

`Cc1cc2nc3c(=O)[nH]c(=O)nc-3n(C[C@H](O)[C@H](O)[C@H](O)COP(=O)(O)O)c2cc1C` [FMN, flavin mononucleotide]: the Kd is 0.26 ± 0.06 nM at flavodoxin; 0.124 ± 0.0057 nM in data set [1] ([apo] * [FMN]/[holo], equilibrium dialysis, dialysis time 24 hrs); 0.174 ± 0.0053 nM in data set [1] ([apo] * [FMN]/[holo], equilibrium dialysis, dialysis time 48 hrs); 0.17 ± 0.0084 nM in data set [1] ([apo] * [FMN]/[holo], equilibrium dialysis, dialysis time 72 hrs); roughly 0.1 nM in data set [1] (dissociation constant (binds endogenous FMN very tightly), summary statement); 0.17 ± 0.008 nM in data set [1] (dissociation constant, equilibrium dialysis, FMN cofactor).

With `Cc1cc2nc3c(=O)[nH]c(=O)nc-3n(C[C@H](O)[C@H](O)[C@H](O)COP(=O)(O)O)c2cc1C` [Free FMN, flavin mononucleotide], the 1O2 quantum yield in data set [2] was 0.51.

`O=c1ccc2nc3ccc(O)c([As]4SCCS4)c3oc-2c1[As]1SCCS1` [ReAsH]: in data set [2], the 1O2 quantum yield was 0.024.

As to `CC1=NC(=Cc2ccc(O)cc2)C(=O)N1C` [naked GFP chromophore], the 1O2 quantum yield in data set [2] is recorded as 0.004.

For the molecule “AtminiSOG0.2: 106-residue mutant of Arabidopsis thaliana phototropin 2 residues 387-492, 1387M/N390S/S394T/S409G/C426G/F470L, SEQ ID NO:2, binds FMN”, the Cell number in the data set with HEK293 cells [3] (Day 0, transfection efficiency >90%) is recorded as 200 10^3; in the data set on HEK293 cells [3] (Day 1, transfection efficiency >90%), 390 10^3; in the data set on HEK293 cells [3] (Day 2, transfection efficiency >90%), 940 10^3. Besides, the “toxicity in the absence of light” value with HEK293 cells [3] is on record as “no obvious toxicity”; in the data set on HEK293 cells [3] (listed as AtminiSOG), “without any obvious toxicity”. The fluorescence quantum yield in data set [4] (listed as AtminiSOG) is given as 0.30; in data set [4] (listed as miniSOG) it was 0.37; in data set [4] (listed as miniSOG0.2), 0.30. Moreover, the “1O2 quantum efficiency relative to ReAsH on a tetracysteine motif” value in data set [5] was “about 20 times”. For the same molecule, the “1O2 (singlet oxygen generation) quantum yield” value in data set [5] (listed as AtminiSOG) is given as 0.47; in data set [5] (listed as miniSOG0.2) it was 0.47±0.05. Further, the extinction coefficient entry in data set [6] (at 448 nm) is “(16.7±0.7)×10^3 M^−1cm^−1”; in data set [6] (at 448 nm, listed as AtminiSOG), 16,700 M^−1cm^−1; in data set [6] (at 473 nm), “(13.6±0.5)×10^3 M^−1cm^−1”; in data set [6] (at 473 nm, listed as AtminiSOG) it was 13,600 M^−1cm^−1. In addition, in the data set with HEK293 cells [7], the “increase of FMN content” value is given as roughly 3 fold.
